# Source: patent US20230338338A1, “PHARMACEUTICAL COMPOSITIONS COMPRISING IONIC LIQUIDS” (The Provost, Fellows, Foundation Scholars, and the other …, priority 2021, published 2023)
# Legend:
# Assay type in all cases: physicochemical
# [1] = Thermodynamic stability and miscibility of the ionic liquid in dissolution media (stirred 24 hours at 37° C., then monitored for two years); conditions: for miscibility with dissolution medium: 2 to 85% w/w; for thermodynamic stability (crystallisation or liquid-liquid phase separation): 2 to 85% w/w BMIm Ibu:dissolution medium, stirred 24 hours at 37° C., then ambient conditions over two years
# Experimental: The thermodynamic stability of BMIm Ibu (ionic liquid) in deionised water (DIW) and simulated intestinal fluid (SIF; 0.05 M phosphate buffer, pH 6.8) was quantified as follows: Ratios of 2 to 85% w/w BMIm Ibu:dissolution medium were placed in small vials and allowed to stir for 24 hours at 37° C.
# [2] = Dissolution study, USP Apparatus 2, deionised water; conditions: 900 ml, 37° C., 50 rpm, equivalent of 200 mg ibuprofenate ion, after 10 minutes until the end of four hours
# Experimental: (§1) Dissolution studies were performed using a USP Apparatus 2 with a Sotax AT7 dissolution bath (Carl Stuart Limited, Dublin, Ireland). The mass of powder corresponding to the equivalent of 200 mg of ibuprofenate ion (equivalent to one dose) was added to 900 ml of dissolution media equilibrated at 37° C. stirred at 50 rpm. Samples were taken and replaced with fresh media every 5 min for the first 30 min, then at 45 min, 60 min and then every 30 min for the remainder of the experiment. The first 2 ml of each 5 ml sample was filtered and discarded before the remaining sample was filtered through a 0.45 μm nylon filter into a HPLC vial. All experiments were carried out in triplicate. A sample of the powder was assayed by completely dissolving it in methanol (n=3) and finding the ionic liquid content by HPLC.
# The dissolution of powders 1 and 5 to 8 in deionised water over a period of four hours was studied.
# The dissolution of powders 9 and 10 in deionised water over a period of four hours was studied.
# An ibuprofen amorphous solid dispersion was also tested. The amorphous solid dispersion was prepared by spray drying a solution of ibuprofen and hydroxypropyl methylcellulose in methanol in the same way as Powders 1 to 8. The ibuprofen content of the amorphous solid dispersion was the same as Powder 1.
# [3] = Dissolution study, USP Apparatus 2, simulated intestinal fluid (SIF); conditions: 0.05M phosphate buffer (pH 6.8), 900 ml, 37° C., 50 rpm, equivalent of 200 mg ibuprofenate ion, after 10 minutes until the end of four hours
# Experimental: as §1
# The dissolution of powders 1 and 5 to 8 in simulated intestinal fluid (SIF), 0.05M phosphate buffer (pH 6.8) over a period of four hours was studied.
# The dissolution of powders 9 and 10 in simulated intestinal fluid (SIF), 0.05M phosphate buffer (pH 6.8) over a period of four hours was studied.
# [4] = simulated intestinal fluid (SIF; 0.05 M phosphate buffer, pH 6.8)
SMILES,miscibility with dissolution medium ([1]; deionised water (DIW)),thermodynamic stability (crystallisation or liquid-liquid phase separation) ([1]; deionised water (DIW)),"miscibility with dissolution medium [1, 4]","thermodynamic stability (crystallisation or liquid-liquid phase separation) [1, 4]",level of dissolution [2],level of dissolution [3]
"CC(C)Cc1ccc(C(C)C(=O)[O-])cc1.CCCCn1cc[n+](C)c1 (stereo not drawn) [BMIm Ibu, 1-butyl-3-methyl imidazolium ibuprofenate]",fully miscible,No crystallisation or phase separation was observed,fully miscible,No crystallisation or phase separation was observed,–,–
"CC(C)Cc1ccc(C(C)C(=O)O)cc1 (stereo not drawn) [crystalline ibuprofen, ibuprofen]",–,–,–,–,≤ 30%,100%
